Measured values: patent US20250288591A1, “TRIMEPRAZINE FOR USE IN TREATING TRIGEMINAL NEURALGIA AND FOR REDUCING PAIN RELATED THERETO” (UNDAUNTED BIO, INC., priority 2022, published 2025)

Columns and labels:
[1] = after application of 5% lidocaine plaster to skin; cited from earlier work
[2] = PHN; study in Japan; cited from earlier work
[3] = 10 patients with TN; cited from earlier work
[4] = 23 patients, add-on therapy; cited from earlier work
histamine H1-receptor = details: more potent than Z-triprolidine; cited from earlier work
[5] = Case report: patient with classic trigeminal neuralgia treated with trimeprazine; assay type: in vivo, human
Source text: A middle-aged patient suffers from classic trigeminal neuralgia presenting with sharp, lancinating, severe pain in their left face precipitated by showering, eating, facial animation, touch of their facial skin and nose, and brushing their teeth. The episodes of pain are initiated by the stimuli above and immediately stop all other activity until they subside in several seconds. Their behavior is modified to avoid the stimuli above, even affecting how they speak and eats. […] Their daily activities are dominated by fear of inducing another attack. […] They had no remedy for these terrible pains before treatment with trimeprazine. The patient began treatment with trimeprazine 5 mg morning and evening. The second day of the course the intensity and frequency of the attacks were in decline. […] Since then, they have noted some discomfort in their face but not the sharp, almost unbearable pain of before. […] On most days they take no medication now. […] They note that this is a common side-effect for them to experience if a medication has any potential for causing drowsiness.

[6] = Observed effect of trimeprazine on pain of post-herpetic neuralgia and trigeminal neuralgia; details: in vivo
Source text: Post-herpetic pain involves the dorsal root ganglion (DRG), and trigeminal neuralgia involves the trigeminal ganglion (TG). Both the DRG and the TG are involved in the perception of itch and pain. Chronic neuropathic pain is a hypersensitivity state that results from peripheral and central sensitization. It is increasingly appreciated that chronic itch and chronic cough are also hypersensitivity syndromes.

mu-opioid receptors = mu-opioid receptors (Homo sapiens, UniProt P35372); details: relative to morphine; cited from earlier work
[7] = 100-400 mg/d; 8 patients with classic TN; cited from earlier work

Chain of mu-opioid receptors (P35372 whole entry): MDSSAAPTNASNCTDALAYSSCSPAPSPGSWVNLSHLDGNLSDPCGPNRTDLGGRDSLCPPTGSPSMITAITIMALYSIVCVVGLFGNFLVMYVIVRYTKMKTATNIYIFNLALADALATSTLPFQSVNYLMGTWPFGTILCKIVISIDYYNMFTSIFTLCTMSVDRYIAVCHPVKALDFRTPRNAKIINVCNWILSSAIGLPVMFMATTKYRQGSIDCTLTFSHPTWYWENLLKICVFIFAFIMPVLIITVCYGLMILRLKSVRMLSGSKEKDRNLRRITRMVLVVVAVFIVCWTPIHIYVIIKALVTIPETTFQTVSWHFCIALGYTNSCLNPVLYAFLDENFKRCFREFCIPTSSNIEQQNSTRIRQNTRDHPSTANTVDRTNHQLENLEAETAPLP

CCN(CC)CC(=O)Nc1c(C)cccc1C [Lidocaine]
share of the drug that reaches the systemic circulation [1]: 3%

CC(C)C[C@H](CN)CC(=O)O [pregabalin, Pregabalin]
analgesic property relative to gabapentin [2]: 6 times

CC[C@@H](C(N)=O)N1CCCC1=O [levetiracetam, Levetiracetam]
improvement [3]: 50-90%
reduction in number of daily attacks [4]: 62%

Cc1ccc(/C(=C\CN2CCCC2)c2ccccn2)cc1 [E-triprolidine]
potency relative to Z-triprolidine (histamine H1-receptor): 1000 fold

CC(CN(C)C)CN1c2ccccc2Sc2ccccc21 (stereo not drawn) [trimeprazine]
side-effects ([5]; 5 mg tablets, one patient): no side-effects other than drowsiness
pain ([5]; after four days of medication, 5 mg morning and evening): all pain was gone
residual discomfort in face ([5]; later use, ½ to 1 pill of 5 mg once or twice a day): successfully alleviated
intensity and frequency of the attacks ([5]; second day of the course, 5 mg morning and evening, one patient): in decline
effect on pain of post-herpetic neuralgia and trigeminal neuralgia [6]: observed to treat the pain

CC[C@@H](c1cccc(O)c1)[C@@H](C)CN(C)C [Tapentadol]
potency in binding mu-opioid receptors, times less potent than morphine (mu-opioid receptors): 18 times

CC1(C)O[C@@H]2[C@@H](CO[C@@]3(COS(N)(=O)=O)OC(C)(C)O[C@@H]23)O1 [Topiramate]
patients in whom the drug was found effective [7]: 75%
